Patent US20240158418A1 (C4 Therapeutics, Inc., priority 2021, published 2024)

Legend:
EGFR-L861Q = target: T1, EGFR-L861Q (Homo sapiens, UniProt P00533, L861Q); assay: KINOMEscan scanMAX, EGFR-L861Q; assay type: binding; conditions: 100 nM
T1 construct: purchased Eurofins DiscoverX KINOMEscan scanMAX; host or cells: E. coli BL21-derived (T7 phage) or HEK-293
Experimental: Kinome-wide binding selectivity of CFT8919 was assessed via the KINOMEscan scanMAX assay at Eurofins DiscoverX (Freemont, CA, USA). Compound was tested at 100 nM against a diverse panel of 468 kinases. The size of circles was mapped onto the kinase phylogenetic tree utilizing DiscoverX TREEspot using <50% of % control as a cutoff.
For most assays, kinase-tagged T7 phage strains were grown in parallel in 24-well blocks in an E. coli host derived from the BL21 strain. E. coli were grown to log-phase and infected with T7 phage from a frozen stock (multiplicity of infection=0.4) and incubated with shaking at 32° C. until lysis (90-150 minutes). The lysates were centrifuged (6,000×g) and filtered (0.2 μm) to remove cell debris. The remaining kinases were produced in HEK-293 cells and subsequently tagged with DNA for qPCR detection. Streptavidin-coated magnetic beads were treated with biotinylated small molecule ligands for 30 minutes at room temperature to generate affinity resins for kinase assays. The liganded beads were blocked with excess biotin and washed with blocking buffer (SeaBlock (Pierce), 1% BSA, 0.05% Tween 20, 1 mM DTT) to remove unbound ligand and to reduce non-specific phage binding. […] Test compounds were prepared as 40× stocks in 100% DMSO and directly diluted into the assay. […] The kinase concentration in the eluates was measured by qPCR.

[1] = target: T2, Sal-like protein 4 (SALL4) (Homo sapiens, UniProt Q9UJQ4); assay: SALL4 degradation, HiBiT-tagged SALL4 in KELLY cells; assay type: cell-based; conditions: 6 hours, up to 10 μM
T2 construct: Endogenous expression of SALL4 in KELLY cells was determined by addition of C-terminal HiBiT tag; host or cells: KELLY (CRISPR-Cas9 HiBiT knock-in)
T2 sequence (Q96SW2 whole entry partner): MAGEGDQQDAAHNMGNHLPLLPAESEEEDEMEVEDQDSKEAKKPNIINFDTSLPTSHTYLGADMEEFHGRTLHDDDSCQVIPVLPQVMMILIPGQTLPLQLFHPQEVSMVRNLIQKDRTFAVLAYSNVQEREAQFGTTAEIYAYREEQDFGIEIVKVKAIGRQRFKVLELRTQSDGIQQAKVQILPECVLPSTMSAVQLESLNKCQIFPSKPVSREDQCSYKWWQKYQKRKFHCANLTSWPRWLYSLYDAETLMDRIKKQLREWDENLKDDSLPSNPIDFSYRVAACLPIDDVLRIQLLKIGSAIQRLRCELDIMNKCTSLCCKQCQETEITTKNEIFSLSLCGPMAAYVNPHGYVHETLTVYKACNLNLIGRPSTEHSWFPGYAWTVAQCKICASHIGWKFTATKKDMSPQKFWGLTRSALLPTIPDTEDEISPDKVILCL
T2 sequence (Q16531 whole entry partner): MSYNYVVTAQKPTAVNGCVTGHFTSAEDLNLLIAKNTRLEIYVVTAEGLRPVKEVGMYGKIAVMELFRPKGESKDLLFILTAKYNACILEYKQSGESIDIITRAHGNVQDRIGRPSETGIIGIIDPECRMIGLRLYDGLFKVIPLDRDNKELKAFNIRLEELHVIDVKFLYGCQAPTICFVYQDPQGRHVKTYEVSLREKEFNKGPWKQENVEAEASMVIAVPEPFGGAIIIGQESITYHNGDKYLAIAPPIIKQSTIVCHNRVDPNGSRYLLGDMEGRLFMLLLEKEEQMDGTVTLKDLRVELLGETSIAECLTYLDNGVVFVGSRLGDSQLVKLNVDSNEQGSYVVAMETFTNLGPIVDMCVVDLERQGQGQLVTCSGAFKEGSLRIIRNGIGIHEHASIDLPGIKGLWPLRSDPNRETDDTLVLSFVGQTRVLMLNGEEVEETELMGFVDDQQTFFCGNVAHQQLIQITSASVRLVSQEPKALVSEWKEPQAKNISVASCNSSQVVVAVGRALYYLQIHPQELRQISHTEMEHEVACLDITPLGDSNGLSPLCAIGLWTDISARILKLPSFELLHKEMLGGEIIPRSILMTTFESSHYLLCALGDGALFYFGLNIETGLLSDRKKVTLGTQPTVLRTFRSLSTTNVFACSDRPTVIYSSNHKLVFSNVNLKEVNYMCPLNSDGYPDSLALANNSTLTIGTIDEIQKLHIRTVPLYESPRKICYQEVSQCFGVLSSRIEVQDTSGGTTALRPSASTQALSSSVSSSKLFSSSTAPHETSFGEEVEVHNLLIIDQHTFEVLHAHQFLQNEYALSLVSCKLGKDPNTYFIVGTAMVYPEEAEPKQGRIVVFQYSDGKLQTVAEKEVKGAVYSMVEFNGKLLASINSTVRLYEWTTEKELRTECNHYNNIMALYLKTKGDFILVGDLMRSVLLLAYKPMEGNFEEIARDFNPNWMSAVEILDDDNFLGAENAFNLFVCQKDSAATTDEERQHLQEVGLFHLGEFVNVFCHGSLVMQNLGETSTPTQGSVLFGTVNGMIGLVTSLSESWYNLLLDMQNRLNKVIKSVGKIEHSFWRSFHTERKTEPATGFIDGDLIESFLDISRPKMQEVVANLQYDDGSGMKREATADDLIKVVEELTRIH
T2 sequence (Q9UJQ4 whole entry): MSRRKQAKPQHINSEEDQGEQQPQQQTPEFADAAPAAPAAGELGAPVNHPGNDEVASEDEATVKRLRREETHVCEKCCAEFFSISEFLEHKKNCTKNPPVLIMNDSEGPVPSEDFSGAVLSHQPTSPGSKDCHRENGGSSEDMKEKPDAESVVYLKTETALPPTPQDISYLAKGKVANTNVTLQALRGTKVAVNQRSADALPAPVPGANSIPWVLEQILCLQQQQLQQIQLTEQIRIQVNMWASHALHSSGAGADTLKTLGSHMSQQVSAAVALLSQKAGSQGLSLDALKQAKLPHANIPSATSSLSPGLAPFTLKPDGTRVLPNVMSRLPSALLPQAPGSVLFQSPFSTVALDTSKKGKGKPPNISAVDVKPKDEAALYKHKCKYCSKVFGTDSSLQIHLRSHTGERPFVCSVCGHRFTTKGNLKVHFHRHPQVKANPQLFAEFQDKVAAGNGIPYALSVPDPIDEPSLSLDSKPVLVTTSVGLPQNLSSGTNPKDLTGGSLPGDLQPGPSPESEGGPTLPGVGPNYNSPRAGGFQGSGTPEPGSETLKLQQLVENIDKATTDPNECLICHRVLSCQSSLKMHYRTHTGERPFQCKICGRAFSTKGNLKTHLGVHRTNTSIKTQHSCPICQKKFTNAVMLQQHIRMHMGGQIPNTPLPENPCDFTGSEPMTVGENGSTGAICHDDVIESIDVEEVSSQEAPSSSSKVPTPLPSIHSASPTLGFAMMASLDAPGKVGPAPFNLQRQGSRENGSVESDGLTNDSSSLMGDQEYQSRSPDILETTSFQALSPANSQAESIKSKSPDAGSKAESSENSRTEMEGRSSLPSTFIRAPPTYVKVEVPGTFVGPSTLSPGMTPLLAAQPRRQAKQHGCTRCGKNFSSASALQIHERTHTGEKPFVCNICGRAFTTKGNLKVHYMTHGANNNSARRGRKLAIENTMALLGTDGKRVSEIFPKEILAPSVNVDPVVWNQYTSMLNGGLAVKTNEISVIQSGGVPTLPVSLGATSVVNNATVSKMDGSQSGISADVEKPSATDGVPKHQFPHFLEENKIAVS
Experimental: Specific studies were carried out to assess the ability of Compound 1 to degrade Sal-like protein 4 (SALL4), a protein implicated in the teratogenicity induced by the IMiD®s class of IKZF1/IKZF3 degraders including lenalidomide (Matyskiela et al., Crystal structure of the SALL4-pomalidomide-cereblon-DDB1 complex, Nature Structural and Molecular Biology, (2020) 27, 319-322). Endogenous expression of SALL4 in KELLY cells was determined by addition of C-terminal HiBiT tag to the KELLY cell line (DSMZ ACC355) using CRISPR-Cas9. Briefly, test compound was added to 384-well plates at a top concentration of 1 μM with 11 points, half log titration in duplicates. KELLY cells expressing HiBiT-tagged SALL4 were seeded into the 384-well plates in RPMI medium containing 10% FBS and 2 mM pyruvate at a cell density of 6000 cells per well. Cells treated in the absence of the test compound were the negative control and wells containing media only were the positive control. Following compound treatment, cells were incubated at 37° C. with 5% CO2 for 6 hr. HiBiT signal was determined using Nano-Glo™ HiBiT Lytic Assay System (Promega, N3050) and luminescence was acquired on EnVision™ Multilabel Reader (PerkinElmer, Santa Clara, CA, USA). % SALL4 remaining was determined by normalizing the signal with positive and negative controls on the same microtiter plate. Data in FIG. 7 are expressed as the mean±SD. […]

[2] = target: T3, Phospho-EGFR Receptor Tyr1068 (Homo sapiens, UniProt P00533, L858R/T790M); assay: Phospho-EGFR in NCI-H1975 tumors after single oral dose (western blot); assay type: in vivo, female BALB/c nude mice
T3 construct: female BALB/c nude mice bearing NCI-H1975 NSCLC tumors; from tissue; host or cells: NCI-H1975 subcutaneous xenograft tumours from female BALB/c nude mice
Experimental: Compound 1 was administered as a single oral (PO) dose at 10, 25, or 50 mg/kg to female BALB/c nude mice with NCI-H1975 tumors. At 4h, 6h or 12h tumors were harvested and the protein expression of mutant EGFR-L858R and phospho-EGFR was measured by western blot.
A xenograft study was conducted in female BALB/c nude mice bearing NCI-H1975 NSCLC tumors. Female nude mice were inoculated subcutaneously in the right flank with 5×10^6 tumors cells in 0.1 mL of PBS. Tumor volume was measured twice weekly in two dimensions using calipers, and volume (mm^3) was calculated using the formula: V=0.5 a×b2 where a and b are the long and short diameters of the tumor in mm, respectively. […]
All agents were administered to mice bearing NCI-H1975 tumors on day 0 as a single oral (PO) dose. […] Protein concentration was quantified using a Pierce™ BCA Protein Assay Kit, samples were reduced, and equal protein amounts were then loaded onto a western blot gel for analysis. Tumors were analyzed for EGFR Receptor L858R Mutant Specific (CST, 3197) or Phospho-EGFR Receptor Tyr1068 (CST, 2234) expression. The intensity of individual bands was measured for data analysis using Image Studio software. Protein expression was quantitated in relation to the reference protein, alpha-tubulin, to control for total protein concentration. […]

O=C1CC[C@H](Nc2ccc(N3CCC(O)(CC(=O)N4CC5(C4)CN(c4ccc(-c6cc(F)c7c(c6)C(=O)N(C(C(=O)Nc6nccs6)c6ncn8c6CCC8)C7)cc4)C5)CC3)c(F)c2)C(=O)N1 (stereo partly drawn) [Compound 1, 2-(6,7-dihydro-5H-pyrrolo[1,2-c]imidazol-1-yl)-2-[6-[4-[2-[2-[1-[4-[[(3S)-2,6-dioxo-3-piperidyl]amino]-2-fluoro-phenyl]-4-hydroxy-4-piperidyl]acetyl]-2,6-diazaspiro[3.3]heptan-6-yl]phenyl]-4-fluoro-1-oxo-isoindolin-2-yl]-N-thiazol-2-yl-acetamide]
percent binding remaining (EGFR-L861Q): < 50%
SALL4 degradation (% SALL4 remaining) [1]: no effect
phospho-EGFR decrease in vivo ([2]; after a single oral dose, NCI-H1975 tumors): > 95%
phospho-EGFR protein expression in tumors ([2]; single PO dose 10, 25 or 50 mg/kg, 4, 6 and 12 hours): phospho-EGFR inhibition
